Laboratory results from ChEMBL document CHEMBL1147836, “Benzo[b]thiophene-2-carboxamides and benzo[b]furan-2-carboxamides are potent antagonists of the human H3-receptor” (Bioorg Med Chem Lett, 2006).

Each molecule was assayed against Histamine H3 receptor (Homo sapiens, UniProt Q9Y5N1) (assay: Antagonist activity at human histamine H3 receptor by [35S]GTP-gamma-S assay).
Type: functional

Chain of Histamine H3 receptor (Q9Y5N1 whole entry): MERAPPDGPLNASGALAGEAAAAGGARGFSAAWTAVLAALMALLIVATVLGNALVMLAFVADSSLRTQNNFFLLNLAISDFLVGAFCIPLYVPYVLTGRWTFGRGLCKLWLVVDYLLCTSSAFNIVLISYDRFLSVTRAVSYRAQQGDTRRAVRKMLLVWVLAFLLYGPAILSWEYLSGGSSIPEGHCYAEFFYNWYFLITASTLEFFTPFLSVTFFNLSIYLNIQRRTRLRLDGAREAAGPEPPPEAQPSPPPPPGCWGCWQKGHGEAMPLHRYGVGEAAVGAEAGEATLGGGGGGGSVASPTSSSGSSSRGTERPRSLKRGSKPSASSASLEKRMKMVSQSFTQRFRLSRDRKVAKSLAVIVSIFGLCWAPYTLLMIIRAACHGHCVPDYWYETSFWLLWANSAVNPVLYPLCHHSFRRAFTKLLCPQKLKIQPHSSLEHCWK

Compound | Ki [nM]
CCOc1cccc2cc(C(=O)N3CCC[C@H]3CN3CCCC3)oc12 | 7
N#Cc1ccc2oc(C(=O)N3CCC[C@H]3CN3CCCC3)cc2c1 | 5
O=C(c1cnc2ccccc2c1)N1CCC[C@H]1CN1CCCC1 | > 150
O=C(c1sc2ccccc2c1Cl)N1CCC[C@H]1CN1CCCC1 | 12
O=C(c1cc2ccccc2s1)N1CCC[C@H]1CN1CCCC1 | 4
O=C(c1cnc2ccccc2c1)N1CCC[C@H]1CN1CCCCC1 | > 150

The remaining lines, values ahead:

Ki [nM] | Compound
22 | O=C(c1cc2ccc(C(F)(F)F)cc2o1)N1CCC[C@H]1CN1CCCCC1
15 | O=C(c1cc2ccc(C(F)(F)F)cc2o1)N1CCC[C@H]1CN1CCCC1
7 | O=C(c1cc2cc(C(F)(F)F)ccc2o1)N1CCC[C@H]1CN1CCCCC1
4 | O=C(c1cc2cc(C(F)(F)F)ccc2o1)N1CCC[C@H]1CN1CCCC1
5 | O=C(c1cc2cc(Cl)ccc2o1)N1CCC[C@H]1CN1CCCC1
14 | CCN(CC)C[C@@H]1CCCN1C(=O)c1cc2cc(C(F)(F)F)ccc2o1
46 | CCN(CC)C[C@@H]1CCCN1C(=O)c1cc2ccc(C(F)(F)F)cc2o1
11 | O=C(c1cc2cc(OC(F)(F)F)ccc2o1)N1CCC[C@H]1CN1CCCC1
